# Where a name gives a salt, the structure may show the parent alone. Read-outs that look alike come from different tables or passages of the source.
# Columns and labels:
# Format in all cases: biochemical
# [1] = biological target: T1, MMP 1 (Homo sapiens, UniProt P03956); assay: In Vitro Collagenase Assay; settings: for IC50: read-out: MMP 1 IC 50; for inhibition at 1 µM: read-out: MMP 1 % inhibition at 1 micromolar, 1 micromolar
# T1 construct: human recombinant fibroblast collagenase (truncated, mw= 18,828, WAR, Radnor)
# T1 sequence (P03956 100-269 limits assumed): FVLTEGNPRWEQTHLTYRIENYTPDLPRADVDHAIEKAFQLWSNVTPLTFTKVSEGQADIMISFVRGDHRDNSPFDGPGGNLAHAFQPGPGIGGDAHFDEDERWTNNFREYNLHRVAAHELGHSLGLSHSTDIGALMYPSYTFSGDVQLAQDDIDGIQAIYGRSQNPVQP
# Protocol: The assay is based on the cleavage of a peptide substrate ((Dnp-Pro-Cha-Gly-Cys(Me)-His-Ala-Lys(NMa)-NH2), Peptide International, Inc.) by collagenase releasing the fluorescent NMa group which is quantitated on the fluorometer. Dnp quenches the NMa fluorescence in the intact substrate. […] Substrate is dissolved in methanol and stored frozen in 1 mM aliquots. […] For the assay, substrate is dissolved in HCBC buffer to a final concentration of 10 µM and collagenase to a final concentration of 5 nM. Compounds are dissolved in methanol, DMSO, or HCBC. The methanol and DMSO are diluted in HCBC to < 1.0%. Compounds are added to the 96 well plate containing enzyme and the reaction is started by the addition of substrate.
# The slope of the line is calculated and represents the reaction rate.
# The linearity of the reaction rate is confirmed (r^2 >0.85). The mean (x ± sem) of the control rate is calculated and compared for statistical significance (p <0.05) with drug-treated rates using Dunnett's multiple comparison test.
# [2] = biological target: T2, MMP 9 (Homo sapiens, UniProt P14780); assay: In Vitro Gelatinase Assay; settings: for IC50: read-out: MMP 9 IC 50; for inhibition at 1 µM: read-out: MMP 9 % inhibition at 1 micromolar, 1 micromolar
# T2 construct: from tissue; host or cells: human neutrophils
# Protocol: The assay is based on the cleavage of the thiopeptide substrate ((Ac-Pro-Leu-Gly(2 mercapto-4 methyl-pentanoyl)-Leu-Gly-OEt), Bachem Bioscience) by the enzyme, gelatinase, releasing the substrate product which reacts colorimetrically with DTNB ((5,5'-dithio-bis(2-nitro-benzoic acid)). The enzyme activity is measured by the rate of the color increase. The thiopeptide substrate is made up fresh as a 20 mM stock in 100% DMSO and the DTNB is dissolved in 100% DMSO as a 100 mM stock and stored in dark at room temperature. Both the substrate and DTNB are diluted together to 1 mM with substrate buffer (50 mM HEPES pH 7.5, 5 mM CaCl2) before use. […] The increase in OD405 is plotted and the slope of the line is calculated which represents the reaction rate. The linearity of the reaction rate is confirmed (r^2 >0.85). The mean (x ± sem) of the control rate is calculated and compared for statistical significance (p <0.05) with drug-treated rates using Dunnett's multiple comparison test.
# [3] = biological target: T3, TACE (Homo sapiens, UniProt P78536); assay: Procedure for Measuring TACE Inhibition; settings: for inhibition at 1 µM: read-out: TACE % inhibition at 1 micromolar
# T3 construct: purchased Immunex
# How it was run: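 Single-concentration screen: test compound at 1 µM final, 10-min room-temperature preincubation with 1 µg/mL protease in Tris pH 7.4 buffer containing glycerol. Initial rate from linear fluorescence increase (340/420 nm) over 10 min after adding 100 µM peptidyl substrate; significance versus control rate by Dunnett's test.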
# [4] = biological target: MMP 13 (Homo sapiens, UniProt P45452); assay: MMP 13 inhibition (IC50 / manual assay; method not described); settings: for IC50: read-out: MMP 13 IC 50
# [5] = human recombinant fibroblast collagenase
# T3 sequence (P78536 215-824): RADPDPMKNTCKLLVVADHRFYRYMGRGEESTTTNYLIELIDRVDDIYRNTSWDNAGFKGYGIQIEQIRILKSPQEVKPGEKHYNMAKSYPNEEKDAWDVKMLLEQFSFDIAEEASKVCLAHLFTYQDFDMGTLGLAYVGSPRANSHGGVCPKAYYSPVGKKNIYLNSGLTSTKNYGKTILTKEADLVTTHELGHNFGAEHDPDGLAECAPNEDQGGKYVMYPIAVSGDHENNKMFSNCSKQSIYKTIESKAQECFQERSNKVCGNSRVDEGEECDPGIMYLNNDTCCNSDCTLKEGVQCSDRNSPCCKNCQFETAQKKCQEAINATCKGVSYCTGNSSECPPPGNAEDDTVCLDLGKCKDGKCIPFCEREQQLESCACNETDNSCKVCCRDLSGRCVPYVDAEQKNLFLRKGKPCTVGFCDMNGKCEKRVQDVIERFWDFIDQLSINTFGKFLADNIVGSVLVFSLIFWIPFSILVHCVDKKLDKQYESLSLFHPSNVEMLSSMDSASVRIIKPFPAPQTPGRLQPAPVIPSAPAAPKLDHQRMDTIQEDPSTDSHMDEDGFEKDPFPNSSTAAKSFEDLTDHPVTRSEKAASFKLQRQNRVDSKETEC
# T2 sequence (P14780 94-707): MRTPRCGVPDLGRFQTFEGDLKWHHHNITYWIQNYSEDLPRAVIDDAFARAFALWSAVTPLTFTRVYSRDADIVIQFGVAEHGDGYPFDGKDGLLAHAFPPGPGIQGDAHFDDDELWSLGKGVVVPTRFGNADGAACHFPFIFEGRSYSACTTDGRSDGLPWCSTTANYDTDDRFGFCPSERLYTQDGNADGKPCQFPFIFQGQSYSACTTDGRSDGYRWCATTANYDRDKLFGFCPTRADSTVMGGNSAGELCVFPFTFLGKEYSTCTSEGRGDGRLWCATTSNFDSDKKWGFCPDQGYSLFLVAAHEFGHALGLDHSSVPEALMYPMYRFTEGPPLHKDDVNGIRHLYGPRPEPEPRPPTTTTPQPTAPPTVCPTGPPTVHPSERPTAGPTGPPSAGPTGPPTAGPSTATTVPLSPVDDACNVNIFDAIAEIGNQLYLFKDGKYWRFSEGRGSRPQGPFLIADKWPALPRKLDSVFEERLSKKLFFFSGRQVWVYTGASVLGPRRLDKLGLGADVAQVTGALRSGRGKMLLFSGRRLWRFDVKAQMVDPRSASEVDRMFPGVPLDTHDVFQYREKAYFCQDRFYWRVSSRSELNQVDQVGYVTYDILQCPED
"IC50 [1, 5] [nM]",IC50 ([2]; human neutrophil gelatinase B) [nM],inhibition at 1 µM [3] [%],IC50 [4] [nM],Compound,further results
540,18.9,29.2,–,"COc1ccc(S(=O)(=O)C(C)(Cc2ccc(OCCN3CCCCCC3)cc2)C(=O)NO)cc1 (stereo not drawn) [Example 18, 2-[4-(2-Azepan-1-yl-ethoxy)-benzyl]-2-(4-methoxy-benzenesulfonyl)-propionic acid hydroxyamide]",–
–,–,20.4,–,CC(Cc1ccc(OCCN2CCCCC2)cc1)(C(=O)NO)S(=O)(=O)c1cccs1 (stereo not drawn) [Example 45],"inhibition at 1 µM [1, 5]: 49%; inhibition at 1 µM ([2]; human neutrophil gelatinase B): 48.6%"
206,–,–,170,"CCCCCC#CCC(Cc1cccnc1)(C(=O)NO)S(=O)(=O)c1ccc(F)cc1 (stereo not drawn) [Example 77, 2-(4-Fluoro-benzenesulfonyl)-2-pyridin-3-ylmethyl-dec-4-ynoic acid hydroxyamide]",–
158,23,17.2,–,"COc1ccc(S(=O)(=O)C(C)(Cc2ccc(-c3ccccc3)cc2)C(=O)NO)cc1 (stereo not drawn) [Example 14, 3-(Biphenyl-4-yl)-N-hydroxy-2-(4-methoxy-benzenesulfonyl)-2-methyl-propionamide]",–
–,50.9,–,6.2,"CC(C)=CCC(CC=C(C)C)(C(=O)NO)S(=O)(=O)c1ccc(C)cc1 [Example 42, 5-Methyl-2-(3-methyl-but-2-enyl)-2-(toluene-4-sulfonyl)-hex-4-enoic acid hydroxyamide]",–
25,0.54,–,–,"COc1ccc(S(=O)(=O)C(CC=C(C)C)(CC=C(C)C)C(=O)NO)cc1 [Example 79, 2-(4-Methoxy-benzenesulfonyl)-5-methyl-2-(3-methyl-but-2-enyl)-hex-4-enoic acid hydroxyamide]",IC50 ([3]; read-out: TACE IC 50): 805 nM
1930,13.3,–,–,"COc1ccc(S(=O)(=O)C2(C(=O)NO)CCN(CCCc3ccccc3)CC2)cc1 [Example 91, 4-(4-methoxy-benzenesulfonyl)-1-(3-phenyl-propyl)-piperidine-4-carboxylic acid hydroxyamide]",IC50 ([3]; read-out: TACE IC 50): 503 nM
239,8.9,41,–,"COc1ccc(S(=O)(=O)C(C)(Cc2ccc(OCCN3CCCCC3)cc2)C(=O)NO)cc1 (stereo not drawn) [Example 17, N-Hydroxy-2-(4-methoxy-benzenesulfonyl)-2-methyl-3-[4-(2-piperidin-1-yl-ethoxy)-phenyl]-propionamide]",–
–,29,–,27,"COc1ccc(S(=O)(=O)C(CCCCOc2ccccc2)(Cc2cccnc2)C(=O)NO)cc1 (stereo not drawn) [Example 68, 2-(4-Methoxy-benzenesulfonyl)-6-phenoxy-2-pyridin-3-ylmethyl-hexanoic acid hydroxyamide]",IC50 ([3]; read-out: TACE IC 50): 522 nM
100,–,15.5,–,"COc1ccc(S(=O)(=O)C(C)(Cc2ccccc2)C(=O)NO)cc1 (stereo not drawn) [Example 12, N-Hydroxy-2-(4-methoxy-benzenesulfonyl)-2-methyl-3-phenyl-propionamide]",–
139,7.9,–,–,"COc1ccc(S(=O)(=O)C(C)(Cc2ccc3ccccc3c2)C(=O)NO)cc1 (stereo not drawn) [Example 52, N-hydroxy-2-(4-methoxy-benzenesulfonyl)-2-methyl-3-naphthalen-2-yl-propionamide]",–
–,7.7,25,4.7,"COc1ccc([S+]([O-])C(C)(Cc2ccccc2)C(=O)NO)cc1 (stereo not drawn) [Example 5, N-Hydroxy-2-(4-methoxy-benzenesulfinyl)-2-methyl-3-phenyl-propionamide]",–
–,560,24.6,34,"CC#CCC(CC#CC)(C(=O)NO)S(=O)(=O)c1ccc(F)cc1 [Example 78, 2-(4-Fluoro-benzenesulfonyl)-2-but-2-ynyl-hex-4-ynoic acid hydroxyamide]",–

# Further lines, the molecule ahead of its results:
Compound,"IC50 [1, 5] [nM]",IC50 ([2]; human neutrophil gelatinase B) [nM],inhibition at 1 µM [3] [%],IC50 [4] [nM],further results
"COc1ccc(SC(C)(Cc2ccccc2)C(=O)NO)cc1 (stereo not drawn) [Example 1, N-Hydroxy-2-(4-methoxy-phenylsulfanyl)-2-methyl-3-phenyl-propionamide]",–,560,31.6,193,–
"COc1ccc(S(=O)(=O)C2(C(=O)NO)CCN(CCc3ccccc3)CC2)cc1 [Example 103, 4-(4-methoxy-benzenesulfonyl)-1-(2-phenyl-ethyl)-piperidine-4-carboxylic acid hydroxyamide]",–,45.1,–,8.8,IC50 [3]: 470 nM
"CCCCOc1ccc(S(=O)(=O)C2(C(=O)NO)CCN(CCCOc3ccccc3)CC2)cc1 [Example 106, 4-(4-n-Butoxy-benzenesulfonyl)-1-(3-phenoxy-propyl)-piperidine-4-carboxylic acid hydroxyamide]",3790,5.1,–,–,IC50 ([3]; read-out: TACE IC 50): 631 nM
"COc1ccc(SC(C(=O)NO)c2ccccc2)cc1 (stereo not drawn) [Example 2, N-Hydroxy-2-(4-methoxy-phenylsulfanyl)-2-phenyl-acetamide]",–,–,–,–,inhibition at 1 µM ([2]; human neutrophil gelatinase B): 10.5%; IC50 ([3]; read-out: TACE IC 50): 403 nM; inhibition at 1 µM ([4]; read-out: MMP 13 % inhibition at 1 micromolar): 0%
"CCCCOc1ccc(S(=O)(=O)C2(C(=O)NO)CCN(CCOc3ccccc3)CC2)cc1 [Example 108, 4-(4-n-Butoxy-benzenesulfonyl)-1-(2-phenoxy-ethyl)-piperidine-4-carboxylic acid hydroxyamide]",2900,5.4,–,–,IC50 ([3]; read-out: TACE IC 50): 270 nM
"CCCCOc1ccc(S(=O)(=O)C(C)(Cc2ccc(OCCN3CCCCC3)cc2)C(=O)NO)cc1 (stereo not drawn) [Example 28, N-Hydroxy-2-(4-n-butoxy-benzenesulfonyl)-2-methyl-3-[4-(2-piperidin-1-yl-ethoxy)-phenyl]-propionamide]",–,–,30.6,2,–
"COc1ccc(S(=O)(=O)C(C)(Cc2ccc(OCCN3CCOCC3)cc2)C(=O)NO)cc1 (stereo not drawn) [Example 82, 2-(4-methoxy-benzenesulfonyl)-2-methyl-3-[4-(2-morpholin-4-yl-ethoxy)-phenyl]-propionic hydroxyamide hydrochloride]",238,19.4,34.5,–,–
"CCCCN1CCC(C(=O)NO)(S(=O)(=O)c2ccc(OC)cc2)CC1 [Example 93, 1-Butyl-4-(4-methoxy-benzenesulfonyl)-piperidine-4-carboxylic acid hydroxyamide]",–,–,15.8,–,"inhibition at 1 µM [1, 5]: 56.3%"
"COc1ccc(S(=O)(=O)C2(C(=O)NO)CCN(C3CCCCCCC3)CC2)cc1 [Example 94, 1-Cyclooctyl-4-(4-methoxy-benzenesulfonyl)-piperidine-4-carboxylic acid hydroxyamide]",2640,138,–,–,–
"COc1ccc(SC(C)(CC=C(C)C)C(=O)NO)cc1 (stereo not drawn) [Example 3, 2-(4-Methoxy-phenylsulfanyl)-2,5-dimethyl-hex-4-enoic acid hydroxyamide]",–,309,27.4,169,–
"CCCCOc1ccc(S(=O)(=O)C2(C(=O)NO)CCN(Cc3ccccc3)CC2)cc1 [Example 98, 1-Benzyl-4-(4-butoxy-benzenesulfonyl)-piperidine-4-carboxylic acid hydroxyamide]",–,–,–,1.2,–
"CCCCOc1ccc(S(=O)(=O)C2(C(=O)NO)CCN(Cc3ccc(OC)cc3)CC2)cc1 [Example 104, 4-(4-n-Butoxy-benzenesulfonyl)-1-(4-methoxy-benzyl)-piperidine-4-carboxylic acid hydroxyamide]",–,–,–,1.4,IC50 ([3]; read-out: TACE IC 50): 208 nM
"CCOc1ccc(S(=O)(=O)C(C)(Cc2ccc(OCCN(CC)CC)cc2)C(=O)NO)cc1 (stereo not drawn) [Example 25, N-Hydroxy-2-(4-ethoxy-benzenesulfonyl)-2-methyl-3-[4-(2-N,N-diethylamino-ethoxy)-phenyl]-propionamide]",–,26.7,–,8,–
"COc1ccc(S(=O)(=O)C2(C(=O)NO)CCN(Cc3ccc(-c4ccccc4)cc3)CC2)cc1 [Example 88, 1-Biphenyl-4-ylmethyl-4-(4-methoxy-benzenesulfonyl)piperidine-4-carboxylic acid hydroxamide]",–,–,–,–,IC50 [1]: 1330 nM; IC50 [2]: 12.8 nM

# — patent publication EP0970046B1, “N-HYDROXY-2-(ALKYL, ARYL, OR HETEROARYL SULFANYL, SULFINYL OR SULFONYL)-3-SUBSTITUTED ALKYL, ARYL OR HETEROARYLAMIDES AS MATRIX METALLOPROTEINASE INHIBITORS” (Wyeth Holdings Corporation, priority 1997, dated 1998)
